These are literature values, as cited in patent US6906044B2, “Regeneration of articular cartilage damaged by grade I and II osteoarthritis by means of the intraarticular application of a mixture of sodium hyaluronate and chondroitin sulfate in a gel vehicle” (Alcon, Inc., priority 2001, dated 2005).

The subject of this data set is injured knees of the horses. Conditions: observed by veterinarians at racetracks.

As to sodium hyaluronate, the “reaction in injured knees” value is “beneficial reaction”.
